Measurements published in US10828317B2, “Method of treating bacterial infections” (priority 2016, dated 2020).
Where two headings read alike, the source gives them in different places. Blank lines part the entries; values can stand above or below the compound they belong to.

Experiments:
P. aeruginosa EN0459 = assay: MIC; format: cell-based, Pseudomonas aeruginosa; conditions: Pseudomonas aeruginosa, EN0459, combination didanosine+trimethoprim+uridine, Table 10; read-out: MIC
P. aeruginosa EN0460 = assay: MIC; format: cell-based, Pseudomonas aeruginosa; conditions: Pseudomonas aeruginosa, EN0460, combination didanosine+trimethoprim+uridine, Table 10; read-out: MIC
E. aerogenes EN0461 = assay: MIC; format: cell-based, Enterobacter aerogenes; conditions: Klebsiella aerogenes, EN0461, combination didanosine+trimethoprim+uridine, Table 10; read-out: MIC
K. pneumoniae EN0463 = assay: MIC; format: cell-based, Klebsiella pneumoniae; conditions: Klebsiella pneumoniae, EN0463, combination didanosine+trimethoprim+uridine, Table 10; read-out: MIC
S. epidermidis EN0456 = assay: MIC; format: cell-based, Staphylococcus epidermidis; conditions: Staphylococcus epidermidis, EN0456, combination didanosine+trimethoprim+uridine, Table 10; read-out: MIC
Citrobacter sp. EN0465 = assay: MIC; format: cell-based; conditions: Citrobacter, SP.EN0465, combination didanosine+trimethoprim+uridine, Table 10; read-out: MIC
S. typhimurium EN0466 = assay: MIC; format: cell-based; conditions: Salmonella enterica, combination didanosine+trimethoprim+uridine, Table 10
[1] = tested on: A. pittii or A. nosocomialis EN0180; assay: MIC; format: cell-based, Acinetobacter pittii or nosocomialis; conditions: combination didanosine+trimethoprim+uridine, Table 10; read-out: MIC
K. oxytoca EN0392 = assay: MIC; format: cell-based; conditions: Klebsiella oxytoca, EN0392, combination didanosine+trimethoprim+uridine, Table 10
P. aeruginosa EN0422 = assay: MIC; format: cell-based, Pseudomonas aeruginosa; conditions: Pseudomonas aeruginosa, EN0422, combination didanosine+trimethoprim+uridine, Table 10; read-out: MIC
P. mirabilis ST19 EN0445 = assay: MIC; format: cell-based, Proteus mirabilis; conditions: Proteus mirabilis, ST19EN0445, combination didanosine+trimethoprim+uridine, Table 10; read-out: MIC
E. coli EN001 = assay: MIC, WT (EN001 = EN0001, ATCC 25922); format: cell-based, Escherichia coli; conditions: combination didanosine+trimethoprim+uridine, Table 20
P. aeruginosa EN004 = assay: MIC, WT (EN004 = EN0004); format: cell-based, Pseudomonas aeruginosa
K. pneumoniae EN006 = assay: MIC, WT (EN006 = EN0006, ATCC 13883); format: cell-based, Klebsiella pneumoniae
A. baumannii EN007 = assay: MIC, WT (EN007 = EN0007); format: cell-based, Acinetobacter baumannii
S. aureus EN008 = assay: MIC, Gram-positive control; format: cell-based, Staphylococcus aureus; conditions: Staphylococcus aureus, EN008, combination didanosine+trimethoprim+uridine, Table 10; read-out: MIC
E. coli EN012 = assay: MIC, WT; format: cell-based, Escherichia coli; conditions: Escherichia coli, EN012, combination didanosine+trimethoprim+uridine, Table 10; read-out: MIC
P. aeruginosa EN014 = assay: MIC, WT; format: cell-based, Pseudomonas aeruginosa; conditions: Pseudomonas aeruginosa, EN014, combination didanosine+trimethoprim+uridine, Table 10; read-out: MIC
A. baumannii EN016 = assay: MIC, WT; format: cell-based, Acinetobacter baumannii; conditions: Acinetobacter baumannii, EN016, combination didanosine+trimethoprim+uridine, Table 10; read-out: MIC
E. coli EN0136 = assay: MIC, ESBL (CTX-M-2); format: cell-based; conditions: Escherichia coli, EN0136, combination didanosine+trimethoprim+uridine, Table 20; read-out: MIC
E. coli EN0235 = assay: microbe, parasite or virus in culture; format: cell-based; conditions: Escherichia coli, EN0235, combination didanosine+trimethoprim+uridine, Table 20
S. aureus V55 = assay: MIC; format: cell-based; conditions: Staphylococcus aureus, Mupirocin resistant isolate, read-out: MIC (resistance pattern)
S. aureus V86 = assay: MIC; format: cell-based; conditions: Staphylococcus aureus, V86; Mupirocin resistant isolate; read-out: MIC (resistance pattern)
S. aureus V308 = assay: MIC; format: cell-based; conditions: Staphylococcus aureus, V308; Mupirocin resistant isolate; read-out: MIC (resistance pattern)
S. aureus V321 = assay: MIC; format: cell-based; conditions: Staphylococcus aureus, Mupirocin resistant isolate, read-out: MIC (resistance pattern)
[2] = combination didanosine+trimethoprim+uridine, Table 20

Compound: O=c1[nH]cnc2c1ncn2[C@H]1CC[C@@H](CO)O1 [Didanosine, didanosine]
- MIC (P. aeruginosa EN0459): > 4 µg/mL
- MIC (P. aeruginosa EN0460): > 4 µg/mL
- MIC (E. aerogenes EN0461): 0.5 µg/mL
- MIC (K. pneumoniae EN0463): 0.25 µg/mL
- MIC (S. epidermidis EN0456): 0.064 µg/mL
- MIC (Citrobacter sp. EN0465): > 4 µg/mL
- MIC (S. typhimurium EN0466): 0.25 µg/mL
- MIC [1]: > 4 µg/mL
- MIC (K. oxytoca EN0392): 0.25 µg/mL
- MIC (P. aeruginosa EN0422): > 4 µg/mL
- MIC (P. mirabilis ST19 EN0445): 1 µg/mL
- MIC (E. coli EN001): 0.25 µg/mL
- MIC (P. aeruginosa EN004; Pseudomonas aeruginosa, EN004, combination didanosine+trimethoprim+uridine, Table 10, read-out: MIC): > 4 µg/mL
- MIC (P. aeruginosa EN004; [2]): >4 µg/mL
- MIC (K. pneumoniae EN006; Klebsiella pneumoniae, EN006, combination didanosine+trimethoprim+uridine, Table 10, read-out: MIC): 0.5 µg/mL
- MIC (K. pneumoniae EN006; [2]): 0.5 µg/mL
- MIC (A. baumannii EN007; Acinetobacter baumannii, EN007, combination didanosine+trimethoprim+uridine, Table 10, read-out: MIC): > 4 µg/mL
- MIC (A. baumannii EN007; [2]): >4 µg/mL
- MIC (S. aureus EN008): 0.5 µg/mL
- MIC (E. coli EN012): 0.064 µg/mL
- MIC (P. aeruginosa EN014): > 4 µg/mL
- MIC (A. baumannii EN016): > 4 µg/mL
- MIC (E. coli EN0136): > 4 µg/mL
- MIC (E. coli EN0235): 0.125 µg/mL

- MIC (S. aureus V55): > 256 µg/mL
- MIC (S. aureus V86): > 256 µg/mL
- MIC (S. aureus V308): > 256 µg/mL
- MIC (S. aureus V321): > 256 µg/mL
Compound: C/C(=C\C(=O)OCCCCCCCCC(=O)O)C[C@@H]1OC[C@H](C[C@@H]2O[C@H]2[C@@H](C)[C@H](C)O)[C@@H](O)[C@H]1O [Mupirocin]
